Measurements reported in a melting point compilation (Tetko et al.; mined from patent text by program, amines drawn as free bases though some values may be those of a salt).

| Structure (SMILES) | melting point [°C] |
| --- | --- |
| CCN(CC1(C(F)(F)F)c2cc(Cl)ccc2Nc2ncccc21)C(C)C (stereo unspecified) | 140 to 141 |
| Nc1ccc(C(=O)CCCCl)cc1[N+](=O)[O-] | 150 |
| COc1cc(Sc2cc(F)cc(C3(OC)CCOCC3)c2)ccc1/C(C)=N/O | 155 |
| O=C1Nc2ccccc2C12CCCCC2 | 164 to 165 |
| O=C1NC(=O)C(c2sccc2Br)O1 (stereo unspecified) | 138 to 139 |
| O=[N+]([O-])c1cc(O)ccc1NCCO | 142 |
| Cc1ccccc1-c1cccc(C=CC(=O)O)c1 | 124 to 125 |
| COc1cc(Nc2c(C#N)cnc3cc(C#C[Si](C)(C)C)sc23)c(Cl)cc1Cl | 169 to 171 |
| COCc1nnc(SCC(=O)C23CC4CC(CC(C4)C2)C3)n1C | 109 to 111 |
| O=C1NCCn2c1cc1c2CCCC1 | 207 to 209 |
| Nc1nnc2ccc(-c3ccco3)nn12 | 203 to 206 |
| O=Cc1csc(Cc2ccccc2)n1 | 78 |
| CCc1nc2cccc(C)c2c(=O)n1-c1ccc(F)cc1 | 170 |
| CC1(C)OC(=O)C(c2cccc(F)c2)=C1c1ccc(S(C)(=O)=O)cc1 | 173 |
| CCSC1(c2ccc(Cl)cc2)OC(c2ccncc2)=Nc2ccccc21 (stereo unspecified) | 138 to 139 |
| CCS(=O)(=O)N(Cc1ccccc1)Cc1ccc2[nH]cc(CCCN3CCN(c4ncncc4OC)CC3)c2c1 | 73 to 75 |
| Nc1ccc(Nc2c(NCc3ccccc3)cc(C(=O)O)cc2S(=O)(=O)Nc2ccc(N)cc2)cc1 | 238 |
| O=C(O)COc1ccc(OCC(=O)O)c(NC(=O)c2ccc(OCCCCc3ccccc3)cc2)c1 | 211 to 214 |
| CCC(C)(C)C(=O)c1ccc(C(=O)O)cc1 | 128 to 129 |
| CCCC(CCC)n1c(CC)nc2c1C(=O)N(C)C(CC)N2c1ccc(Cl)cc1Cl (stereo unspecified) | 116 to 118 |
| O=C(NC1CCCn2c1nc(-c1ccncc1)cc2=O)Oc1ccccc1 (racemic) | 193 to 195 |
| O=S1(=O)c2ccccc2-c2ccccc2N1CCCN1CCN(c2ccc(F)cc2)CC1 | 163 |
| CSc1nn2c(N)cc(CN(C)C)nc2c1S(=O)(=O)c1ccccc1 | 216 to 218 |
| CCc1nc2c(N)nc(C)c(C)c2n1Cc1cc(-c2ccc(F)cc2)no1 | 255 to 256 |
| CCOc1nc2cc(C)nn2c2cc(Cl)ncc12 | 176 |
| Cc1nc(NC(=O)c2ccco2)sc1C(=O)c1sc(NC(=O)c2ccco2)nc1C | 198 to 199 |

| Structure (SMILES) | melting point [°C] |
| --- | --- |
| CCC(CC)CC(=N)NC(=S)Nc1ccc(Cl)cc1 | 116 to 118 |
| CS(=O)(=O)Nc1ccc([N+](=O)[O-])nc1 | 187 to 189 |
| COCCS(=O)(=O)c1ccc(CCN2CC=C(c3c[nH]c(-c4ccc(F)c(Cl)c4)c3-c3ccncc3)CC2)cc1 | 208 to 210 |
| CN(C)S(=O)(=O)c1ccc(C(N)=O)c(C(F)(F)F)c1 | 149 to 156 |
| CC(=Cc1cc(Br)ccc1O)[N+](=O)[O-] | 95 to 97 |
| c1ccc(P(Cc2ccccc2-c2ccccc2CP(c2ccccc2)c2ccccc2)c2ccccc2)cc1 | 84 to 87 |
| Cc1ncc(C=S)c(Nc2ccccc2)n1 | 106 |
| COC(=O)[C@H]1CC[C@@H](c2c(-c3ccccc3)n(C)c3ccccc32)CC1 | 141 to 142 |
| COc1ccc(Cl)c2c1C(=O)OC2=O | 192 to 193 |
| COc1cccc(CC(=O)O)c1OCCCc1cn(-c2nnc(C(F)(F)F)s2)nc1C(C)C | 114 to 115 |
| O=S(=O)(Nc1ccccc1)c1cccc(Br)c1 | 98 to 100 |
| CC1(C)[C@@H](C(=O)O)[C@@H]1C(=O)O (relative stereo) | 217 |
| C=CCNC(=S)Nc1cc(=N)n2c(n1)SCC2 | 225 to 226 |
| O=C(O)c1c(CN2CCC(c3ccccc3)(c3ccccc3)CC2)ncn1Cc1ccc(Cl)cc1 | 135 to 136 |
| CC(C)(C)OC(=O)Nc1ccc(-c2ccccc2F)cc1N | 100 to 103 |
| ClCc1nc(Cl)c2ccccc2n1 | 99 to 101 |
| CC(C)CNC(=O)[C@H]1C[C@@H](S(=O)(=O)c2ccc([N+](=O)[O-])cc2)[C@@H](c2ccccc2F)N1 (racemic) | 218 |
| c1ccc(-c2cnc3nncn3c2)cc1 | 231 |
| O=C1Oc2ccccc2Oc2ccccc21 | 62 to 66 |
| CCNc1cccc(NC(=O)COCC)c1C#N | 84 to 87 |
| CC(C)(C)N=NC(C)(C)SC#N | 29 to 31 |
| O=C(O)c1cc(Br)sc1Cl | 159 to 160 |
| CN(C)C=Cc1[nH]c(=O)ccc1C#N | 298 to 300 |
| O=c1oc(-c2ccc(F)cc2)cc2ccccc12 | 134 to 135 |
| Cc1ccc2[nH]c(=O)n3c(=O)[nH]nc3c2c1C | > 350 |
| CCOC(CNC(=S)Nc1ccccn1)OCC | 132 to 133 |

| Structure (SMILES) | melting point [°C] |
| --- | --- |
| O=C(Nc1ccc(-n2nc(C(F)(F)F)cc2C2CC2)c(F)c1)c1ccc2nn[nH]c2c1 | 235 to 237 |
| C=CCc1c(C)nc(C)c(C(=O)Nc2c(CC)cc(C)cc2CC)c1Cl | 192 to 194 |
| COC(=O)CC[C@H](NC(=O)c1ccc(CCn2cnc3nc(NC(=O)C(C)(C)C)cc-3c2O)cc1)C(=O)OC | 247 |
| CCN(CC)c1nc2ncnn2c2c1cnc1c2cnn1CC | 215 to 217 |
| CC(C)Oc1ccc(-n2c(C(=O)NCCNC(=O)OC(C)(C)C)cc3cc(Oc4ccc(C(F)(F)F)cn4)ccc32)cc1 | 188 to 190 |
| O=C(NCCCCCn1cnc2cnc3ccccc3c21)c1ccccc1 | 172 |
| O=C1c2ccccc2C(OCCc2ccccn2)N1c1ccc2ccc(Cl)nc2n1 (stereo unspecified) | 142 |
| Cc1ccc(-c2ccc3c(c2)OCO3)cc1 | 57 to 60 |
| Nc1cc(F)c(F)cc1S(N)(=O)=O | 137 to 142 |
| CCOC(=O)c1c(SC)n(-c2ccc(F)cc2)c2cc(F)c(F)cc2c1=O | 167 |
| CC(=O)Nc1ccc2c(c1)cc(C(=O)O)n2Cc1ccc(Cl)c(Cl)c1 | 245 to 246 |
| CCCc1nc2c(N)nc3ccccc3c2n1CC(OCC)OCC | 148 to 150 |
| Oc1cccc(Cc2cnc3c(-c4cc(-c5ccccc5)cs4)cnn3c2O)c1 | 235 to 237 |
| COc1cc(N)c(Cl)cc1Cn1nc(-c2ccc(C(F)(F)F)cc2)[nH]c1=O | > 270 |
| Clc1ccc(-c2ccc3nncn3c2)cc1 | 259 to 262 |
| CC[C@H](C)C(OCc1ccccc1)[C@H]1[C@H]([N+](=O)[O-])[C@H](c2ccccc2)N[C@@H]1C(=O)NCCCCCC(=O)O (stereo partly specified) | 105 to 106 |
| CC(C)(C)OC(=O)N1CCN(c2cc(Cl)ccc2N)CC1 | 125 to 127 |
| CC(C)(C)OC(=O)NCCCCn1c(-c2ccccc2)nc2cnc3ccccc3c21 | 158 to 159 |
| Cc1cc(C)c(S(=O)(=O)N2CCCC2c2ccc(F)cc2)c(C)c1 (racemic) | 111 |
| COC(=O)C(C#N)=Cc1cc(OC)c(OC)cc1[N+](=O)[O-] | 162 to 164 |
| Cc1cccc2c1C(=O)N1CC[C@H]1c1c(C(=O)OC3CCCCC3)ncn1-2 | 199 to 200 |
| COc1cc2c(cc1OC)CCN(CCCN(C)C1CCc3cc(OC)c(OC)cc3C1)C=C2 (stereo unspecified) | 115 to 116 |
| COc1ccccc1N1CCN(C[C@@H](C)N(C(=O)c2ccccc2)C(=O)c2ccccc2)CC1 | 115 to 120 |
| Oc1ccc(Nc2nccc(-c3ccncc3)n2)cc1 | 268 to 270 |
| COC(=O)c1[nH]c(=O)n(C(=O)NCCCN2CCN(c3ccccc3OC)CC2)c1-c1ccc(F)c(F)c1 | 122 to 124 |
| COC(=O)NC(C(=O)O)c1ccc([N+](=O)[O-])cc1 (stereo unspecified) | 152 |

| Structure (SMILES) | melting point [°C] |
| --- | --- |
| CCC(C)C(NC(=O)N1CCCCCC1)C(=O)NC(Cc1ccc(OCc2ccccc2)cc1)C(=O)OC(C)(C)C (stereo unspecified) | 53 to 57 |
| CCC#CC(C)(C)NC(=O)C(CC)Oc1cncc(Br)c1 (stereo unspecified) | 90 to 92 |
| OCC(CBr)(CBr)CBr | 67 to 69 |
| O=C(Nc1ccccc1)OCc1cn(-c2cc3cc(C(=O)O)c(=O)[nH]c3cc2[N+](=O)[O-])cn1 | > 300 |
| CCCCCCCCCCCCCCCCCCS(=O)(=O)c1cc2ccccc2c(N=Nc2ccc(OC)cc2)c1O | 117 to 119 |
| O=S(=O)(c1ccccc1)c1ccccn1 | 90 to 91 |
| CC(C)(C)Sc1ccc(Cn2c(CC(C)(C)C(=O)O)c(SC(C)(C)C)c3cc(OCc4ccc5ccccc5n4)ccc32)cc1 | 172 to 173 |
| CN1CCC(C(=O)N(C)C)C(c2cccc(F)c2)C1 (stereo unspecified) | 101 |
| CCOC(=O)c1c(N2CCC(N(C)C)CC2)c2cc(C)ccc2n(Cc2ccccc2)c1=O | > 60 |
| O=C1Nc2ccccc2C12CCCC2Br (stereo unspecified) | 238 to 240 |
| Cc1oc(-c2ccccc2)nc1C(=O)CBr | 88 to 89 |
| O=c1c2ccc(Cl)cc2n(Cc2ccccc2)n2c(Cl)ccc12 | 134 to 136 |
| COc1cc(C(=O)N2CCN(C(=O)/C=C(\c3ccc(F)cc3)c3cc(OC)c(OC)c(OC)c3)CC2)cc(OC)c1OC | 130 to 132 |
| NC(=S)c1sc(-c2ccccc2)nc1N | 164 to 167 |
| Cc1nc(CN(C)C)n(-c2ccc(Cl)cc2C(=O)c2ccccc2Cl)c1CO | 164 to 166 |
| CC(C)(C(=O)N(O)Cc1ccccc1Cl)C(Cl)Cl | 136 to 138 |
| CC(N)(C=CCP(=O)(O)O)C(=O)O (stereo unspecified) | 225 to 226 |
| CCCCC(CC)COc1ccc(-c2nc(-c3ccc(OCC(CC)CCCC)cc3O)nc(-c3cccn3Cc3ccccc3)n2)c(O)c1 (stereo unspecified) | 66 to 68 |
| COc1cccc(CC(=O)O)c1OCCCc1cn(-c2ccc(Cl)cn2)nc1C(C)(C)C | 87 to 88 |
| COc1ccc(C=CC(=O)c2ccco2)c(OC)c1 | 57 to 59 |
| O=C(O)CC1c2ccccc2CCc2cc(Cl)ccc21 (stereo unspecified) | 142 to 146 |
| CCNC(=O)c1c([Si](C)(C)C)ccc(I)c1Cl | 128 to 130 |
| COc1cc(COc2nn(-c3ccccc3)cc2/C=C/P(=O)(O)O)ccc1OCc1nc(-c2ccco2)oc1C | 138 to 140 |
